According to patent publication US20250051686A1, “SURFACTANTS FOR CLEANING PRODUCTS” (AdvanSix Resins & Chemicals LLC, priority 2023, published 2025):

What was measured:
Assay in all cases: Antimicrobial minimum inhibitory concentration (MIC), serial dilution
[1] = test system: P. aeruginosa (9027); format: cell-based, Pseudomonas aeruginosa; conditions: 24 hours; serial dilution 1.7 fold; 400 ppm max
Text: (§1) The antimicrobial properties of surfactants can be examined using known methods and standard protocols, and various types of microorganisms as treatment targets. As a general matter, standard protocols can be developed to assess antimicrobial minimum inhibitory concentration (MIC) using serial dilution method, giving concentration-dependent microorganism growth inhibition measurements against gram positive (e.g., Streptococcus mutans, which is anaerobic, and Staphylococcus aureus, which is usually aerobic but can grow also anaerobically), gram negative (e.g., Escherichia coli, which is anaerobic, or Pseudomonas aeruginosa, which is aerobic). Bacteria are propagated overnight in a suitable growth medium, e.g., a Tryptic Soy Broth. Prior to testing, the concentrations of the test organisms are established using a spectrophotometer that can measure optical density. Those bacterial samples are then diluted to about 1E3 to 1E4 CFU/mL. […] Test measurements are conducted on replicate 96-well plates, and reported as the rounded whole number average of the determined MIC. […] Measurement variability is then reported based on the determined average in the form of MIC+/−.

[2] = test system: S. aureus (6538); format: cell-based, Staphylococcus aureus; conditions: 24 hours; serial dilution 1.7 fold; 400 ppm max (ADBAC control 20 ppm max)
Text: as §1

[3] = test system: E. coli (8739); format: cell-based, Escherichia coli; conditions: 24 hours; serial dilution 1.7 fold; 400 ppm max (ADBAC control 20 ppm max)
Text: as §1

[4] = test system: S. mutans (25715); format: cell-based, Streptococcus mutans; conditions: 24 hours; serial dilution 1.7 fold; 400 ppm max (ADBAC control 20 ppm max)
Text: as §1

MIC Result [1]: 48 +/− 20 ppm
MIC Result [2]: 7 +/− 3 ppm
MIC Result [3]: 16 +/− 7 ppm
MIC Result [4]: 7 +/− 3 ppm
SMILES: CCCCCCCCCCCCCC[N+](C)(C)Cc1ccccc1.[Cl-] [ADBAC control]
